Results reported in PubChem BioAssay (NCI).
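Dose response: 5 concentrations. Exposure: 48 h. Format: 96-well plates. Endpoint: linear interpolation; highest concentration if not reached. The concentration for 50% growth inhibition is given as GI50. TGI denotes the concentration required for complete inhibition of growth.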

How the values were obtained:
Test in all cases: growth of human tumour cells (NCI), 48 h
NCI-H460 lung = system: NCI-H460 lung
OVCAR-8 ovarian = system: OVCAR-8 ovarian
SK-MEL-28 melanoma = system: SK-MEL-28 melanoma
DU-145 prostate = system: DU-145 prostate
RPMI-8226 leukemia = system: RPMI-8226 leukemia
NCI-H23 lung = system: NCI-H23 lung
MDA-MB-231 breast = system: MDA-MB-231 breast
SW-620 colon = system: SW-620 colon
SK-MEL-5 melanoma = system: SK-MEL-5 melanoma
LOX IMVI melanoma = system: LOX IMVI melanoma
A549 NSCLC = system: A549 NSCLC
MALME-3M melanoma = system: MALME-3M melanoma
OVCAR-4 ovarian = system: OVCAR-4 ovarian
MDA-MB-435 = system: MDA-MB-435
UO-31 renal = system: UO-31 renal
SK-OV-3 ovarian = system: SK-OV-3 ovarian
UACC-62 melanoma = system: UACC-62 melanoma
SF-295 CNS = system: SF-295 CNS
HS 578T breast = system: HS 578T breast
EKVX NSCLC = system: EKVX NSCLC
SN12C renal = system: SN12C renal
BT-549 breast = system: BT-549 breast
NCI-H522 lung = system: NCI-H522 lung
K-562 leukemia = system: K-562 leukemia
SNB-75 CNS = system: SNB-75 CNS
CAKI-1 renal = system: CAKI-1 renal
HOP-62 NSCLC = system: HOP-62 NSCLC
HT29 colon = system: HT29 colon
COLO 205 colon = system: COLO 205 colon
SK-MEL-2 melanoma = system: SK-MEL-2 melanoma
MCF7 breast = system: MCF7 breast
IGROV1 ovarian = system: IGROV1 ovarian
HCT-116 colon = system: HCT-116 colon
NCI-H226 lung = system: NCI-H226 lung
U251 CNS = system: U251 CNS
A498 renal = system: A498 renal
KM12 colon = system: KM12 colon
OVCAR-5 ovarian = system: OVCAR-5 ovarian
HOP-92 NSCLC = system: HOP-92 NSCLC
M14 melanoma = system: M14 melanoma
MDA-MB-468 breast = system: MDA-MB-468 breast
SNB-19 CNS = system: SNB-19 CNS
786-0 renal = system: 786-0 renal
RXF 393 renal = system: RXF 393 renal
ACHN renal = system: ACHN renal
CCRF-CEM leukemia = system: CCRF-CEM leukemia
TK-10 renal = system: TK-10 renal
T-47D breast = system: T-47D breast
PC-3 prostate = system: PC-3 prostate
HCC-2998 colon = system: HCC-2998 colon
SR leukemia = system: SR leukemia
SF-539 CNS = system: SF-539 CNS
HL-60(TB) leukemia = system: HL-60(TB) leukemia
OVCAR-3 ovarian = system: OVCAR-3 ovarian
SF-268 CNS = system: SF-268 CNS
HCT-15 colon = system: HCT-15 colon
NCI/ADR-RES ovarian = system: NCI/ADR-RES ovarian
MOLT-4 leukemia = system: MOLT-4 leukemia
UACC-257 melanoma = system: UACC-257 melanoma

`CN(C(=O)c1ccc(C(C)(C)C)cc1)c1sc2c(c1C#N)CCC(=O)C2` showed a GI50 (NCI-H460 lung) of 13.1 µM, a TGI (NCI-H460 lung) of 27.5 µM and a GI50 (OVCAR-8 ovarian) of 9.16 µM. It also gave a TGI (OVCAR-8 ovarian) of 39.6 µM, a GI50 (SK-MEL-28 melanoma) of 11.2 µM and a TGI (SK-MEL-28 melanoma) of 23.9 µM. For the same compound, the GI50 (DU-145 prostate) was 16.7 µM, the TGI (DU-145 prostate) was 33.4 µM and the GI50 (RPMI-8226 leukemia) was 2.93 µM. It also gave a GI50 (NCI-H23 lung) of 2.42 µM, a TGI (NCI-H23 lung) of 6.56 µM and a GI50 (MDA-MB-231 breast) of 2.84 µM. It also gave a TGI (MDA-MB-231 breast) of 8.49 µM, a GI50 (SW-620 colon) of 2.06 µM and a TGI (SW-620 colon) of 4.17 µM. The GI50 (SK-MEL-5 melanoma) was 2.07 µM, the TGI (SK-MEL-5 melanoma) was 4.63 µM and the GI50 (LOX IMVI melanoma) was 2.11 µM. The TGI (LOX IMVI melanoma) was 5.2 µM, the GI50 (A549 NSCLC) was 16.8 µM and the TGI (A549 NSCLC) was 35.3 µM. For the same compound, the GI50 (MALME-3M melanoma) was 12.6 µM, the TGI (MALME-3M melanoma) was 26.2 µM and the GI50 (OVCAR-4 ovarian) was 2.64 µM. The TGI (OVCAR-4 ovarian) was 8.45 µM, the GI50 (MDA-MB-435) was 5.8 µM and the TGI (MDA-MB-435) was 21.1 µM. For the same compound, the GI50 (UO-31 renal) was 2.94 µM, the TGI (UO-31 renal) was 11.2 µM and the GI50 (SK-OV-3 ovarian) was 17.9 µM. For the same compound, the TGI (SK-OV-3 ovarian) was 34.1 µM, the GI50 (UACC-62 melanoma) was 2.34 µM and the TGI (UACC-62 melanoma) was 6.4 µM. It also gave a GI50 (SF-295 CNS) of 3.45 µM, a TGI (SF-295 CNS) of 14 µM and a GI50 (HS 578T breast) of 3.89 µM. For the same compound, the TGI (HS 578T breast) was 28.1 µM, the GI50 (EKVX NSCLC) was 3.49 µM and the TGI (EKVX NSCLC) was 14 µM. The GI50 (SN12C renal) was 14 µM, the TGI (SN12C renal) was 27.2 µM and the GI50 (BT-549 breast) was 1.98 µM. The TGI (BT-549 breast) was 4.88 µM, the GI50 (NCI-H522 lung) was 1.75 µM and the TGI (NCI-H522 lung) was 3.45 µM. The GI50 (K-562 leukemia) was 3.17 µM, the TGI (K-562 leukemia) was 10.7 µM and the GI50 (SNB-75 CNS) was 6.94 µM. For the same compound, the TGI (SNB-75 CNS) was 24.4 µM, the GI50 (CAKI-1 renal) was 3.8 µM and the TGI (CAKI-1 renal) was 17.6 µM. It also gave a GI50 (HOP-62 NSCLC) of 15.2 µM, a TGI (HOP-62 NSCLC) of 32.1 µM and a GI50 (HT29 colon) of 17.8 µM. For the same compound, the TGI (HT29 colon) was 41 µM, the GI50 (COLO 205 colon) was 19.6 µM and the TGI (COLO 205 colon) was 37.2 µM. It also gave a GI50 (SK-MEL-2 melanoma) of 14.5 µM, a TGI (SK-MEL-2 melanoma) of 28.7 µM and a GI50 (MCF7 breast) of 11.8 µM. For the same compound, the TGI (MCF7 breast) was 32 µM, the GI50 (IGROV1 ovarian) was 11.7 µM and the TGI (IGROV1 ovarian) was 25 µM. It also gave a GI50 (HCT-116 colon) of 2.08 µM, a TGI (HCT-116 colon) of 4.91 µM and a GI50 (NCI-H226 lung) of 14.1 µM. For the same compound, the TGI (NCI-H226 lung) was 38.1 µM, the GI50 (U251 CNS) was 1.82 µM and the TGI (U251 CNS) was 3.9 µM. It also gave a GI50 (A498 renal) of 15.4 µM, a TGI (A498 renal) of 29.4 µM and a GI50 (KM12 colon) of 3.97 µM. For the same compound, the TGI (KM12 colon) was 14.6 µM, the GI50 (OVCAR-5 ovarian) was 14 µM and the TGI (OVCAR-5 ovarian) was 27.6 µM. For the same compound, the GI50 (HOP-92 NSCLC) was 3.51 µM, the TGI (HOP-92 NSCLC) was 15.7 µM and the GI50 (M14 melanoma) was 3.57 µM. It also gave a TGI (M14 melanoma) of 12.8 µM, a GI50 (MDA-MB-468 breast) of 2.27 µM and a TGI (MDA-MB-468 breast) of 5.63 µM. For the same compound, the GI50 (SNB-19 CNS) was 3.7 µM, the TGI (SNB-19 CNS) was 14.7 µM and the GI50 (786-0 renal) was 3.72 µM. It also gave a TGI (786-0 renal) of 13.3 µM, a GI50 (RXF 393 renal) of 1.96 µM and a TGI (RXF 393 renal) of 4.53 µM. The GI50 (ACHN renal) was 3.2 µM, the TGI (ACHN renal) was 10.5 µM and the GI50 (CCRF-CEM leukemia) was 3.34 µM. For the same compound, the TGI (CCRF-CEM leukemia) was 10.4 µM, the GI50 (TK-10 renal) was 10.4 µM and the TGI (TK-10 renal) was 23 µM. The GI50 (T-47D breast) was 1.83 µM, the TGI (T-47D breast) was 4.07 µM and the GI50 (PC-3 prostate) was 2.72 µM. The TGI (PC-3 prostate) was 8.32 µM, the GI50 (HCC-2998 colon) was 5.09 µM and the TGI (HCC-2998 colon) was 16.6 µM. It also gave a GI50 (SR leukemia) of 2.28 µM, a TGI (SR leukemia) of 7.1 µM and a GI50 (SF-539 CNS) of 1.77 µM. For the same compound, the TGI (SF-539 CNS) was 3.42 µM, the GI50 (HL-60(TB) leukemia) was 8.84 µM and the TGI (HL-60(TB) leukemia) was 30.3 µM. For the same compound, the GI50 (OVCAR-3 ovarian) was 2.43 µM, the TGI (OVCAR-3 ovarian) was 5.9 µM and the GI50 (SF-268 CNS) was 4.79 µM. The TGI (SF-268 CNS) was 24.3 µM, the GI50 (HCT-15 colon) was 2.04 µM and the TGI (HCT-15 colon) was 4.13 µM. It also gave a GI50 (NCI/ADR-RES ovarian) of 2.68 µM, a TGI (NCI/ADR-RES ovarian) of 7.44 µM and a GI50 (MOLT-4 leukemia) of 4.21 µM. For the same compound, the TGI (MOLT-4 leukemia) was 23.5 µM, the GI50 (UACC-257 melanoma) was 18 µM and the TGI (UACC-257 melanoma) was 33.7 µM.
